Laboratory results as given in ChEMBL document CHEMBL5150075 (J Med Chem, 2022).
Activity calls are given as the source filed them. The rule behind the calls is not given here.

Experiments:
DU-145 [1] = assay: Induction of apoptosis in human DU-145 cells assessed as dead cells at 0.1 uM incubated for 48 hrs by Annexin V-FITC/PI staining based flow cytometry analysis (reference value: 1.05%); assay type: functional
[2] = target: Voltage-gated inwardly rectifying potassium channel KCNH2 (Homo sapiens, UniProt Q12809); assay: Inhibition of hERG expressed in CHO cells by whole cell patch clamp method; assay type: toxicity, cell-based
Tubulin (Homo sapiens) [3] = target: T1, Tubulin (Homo sapiens) (UniProt P68371+Q9H4B7+P0DPH7+P68366+Q13509+Q71U36+P04350+Q3ZCM7+P07437+P68363+Q9BQE3+Q6PEY2+Q13885+Q9BVA1+Q9BUF5); assay: Inhibition of [3H]colchicine binding to tubulin (unknown origin) at 1 uM incubated for 2 hrs by TopCount scintillation counting method relative to control; assay type: protein-complex assay
[4] = Toxicity in BALB/c nude mouse xenografted with human DU-145 cells assessed as reduction in body weight at 5 mg/kg, po administered once daily and measured twice a week; assay type: organism-based; conditions: in vivo
MCF7 = assay: cells; conditions: Homo sapiens, MCF7, 72 h
Description: Antiproliferative activity against human MCF7 cells assessed as inhibition of cell growth incubated for 72 hrs by MTT assay

DU-145 [5] = assay: Induction of apoptosis in human DU-145 cells assessed as dead cells at 0.03 uM incubated for 48 hrs by Annexin V-FITC/PI staining based flow cytometry analysis (reference value: 1.05%); assay type: functional
DU-145 [6] = assay: Induction of apoptosis in human DU-145 cells assessed as live cells at 0.03 uM incubated for 48 hrs by Annexin V-FITC/PI staining based flow cytometry analysis (reference value: 94.94%); assay type: functional
DU-145 [7] = assay: Induction of apoptosis in human DU-145 cells assessed as early apoptotic cells at 0.03 uM incubated for 48 hrs by Annexin V-FITC/PI staining based flow cytometry analysis (reference value: 1.97%); assay type: functional
[8] = Stability in mouse liver microsomes assessed as half life incubated in presence of NADPH by LC-MS/MS analysis; assay type: ADME, Microsome
[9] = Cmax in Kunming mouse at 20 mg/kg, po by LC-MS/MS analysis; assay type: ADME, organism-based; parameters: dose 20 mg/kg, route po; conditions: in vivo
BGC-823 = assay: Antiproliferative activity against human BGC-823 cells assessed as inhibition of cell growth incubated for 72 hrs by MTT assay; assay type: functional, cell-based; conditions: BGC-823, 72 h
[10] = target: L-type calcium channel alpha-1c/beta-2/alpha2delta-1 (Homo sapiens, UniProt P54289+Q08289+Q13936); assay: Inhibition of human alpha1c/beta2a/alpha2delta1 Cav1.2 expressed in HEK293 cells assessed as effect on calcium flux by FLIPR analysis; assay type: toxicity, cell-based
NCI-H1299 = assay: Antitumor activity against human NCI-H1299 cells xenografted in BALB/c nude mouse assessed as suppression of tumor growth at 10 mg/kg, po administered once daily and measured twice a week relative to control; assay type: functional
[11] = Toxicity in specific pathogen-free Kunming mouse assessed as pathological changes in kidney at 10 mg/kg, po administered once daily and measured after 7 days by hematoxylin and eosin staining based analysis; assay type: organism-based; conditions: in vivo, 168 h, time 7 day
DU-145 [12] = assay: Antiproliferative activity against human DU-145 cells assessed as inhibition of cell growth incubated for 96 hrs by real-time cell analysis; assay type: functional, cell-based; conditions: DU-145, 96 h
[13] = AUC (0 to t) in Kunming mouse at 20 mg/kg, po by LC-MS/MS analysis; assay type: ADME, organism-based; parameters: dose 20 mg/kg, route po; conditions: in vivo
A549 [14] = assay: cells; conditions: Homo sapiens, A549, 72 h
DU-145 [15] = assay: Induction of apoptosis in human DU-145 cells assessed as late apoptotic cells at 0.3 uM incubated for 48 hrs by Annexin V-FITC/PI staining based flow cytometry analysis (reference value: 2.05%); assay type: functional
NCI-H460 = assay: cells; conditions: Homo sapiens, NCI-H460, 72 h
Description: Antiproliferative activity against human NCI-H460 cells assessed as inhibition of cell growth incubated for 72 hrs by MTT assay

[16] = Toxicity in specific pathogen-free Kunming mouse assessed as pathological changes in liver at 10 mg/kg, po administered once daily and measured after 7 days by hematoxylin and eosin staining based analysis; assay type: organism-based; conditions: in vivo, 168 h, time 7 day
Tubulin (Homo sapiens) [17] = target: T1, Tubulin (Homo sapiens); assay: Disruption of microtubule network in human DU-145 cells assessed as reduction in acetyl-alpha tubulin expression by Western blot analysis; assay type: cell-based; conditions: dose 0.03-0.3 µM
[18] = Mutagenicity in Salmonella typhimurium TA-1535 at 0.5 to 500 ug per plate incubated for 72 hrs in presence or absence of S9 fraction by Ames test; assay type: toxicity, Salmonella enterica subsp. enterica serovar Typhimurium; conditions: in vivo, dose 0.5-500 µg
A549 [19] = assay: Antiproliferative activity against paclitaxel-resistant human A549 cells assessed as inhibition of cell growth incubated for 72 hrs by MTT assay; assay type: functional, cell-based; conditions: A549, 72 h
[20] = Oral bioavailability in Kunming mouse at 20 mg/kg by LC-MS/MS analysis; assay type: ADME, organism-based; conditions: in vivo
B16-F10 = assay: Antitumor activity against mouse B16-F10 cells implanted in C57BL/6 mouse assessed as tumor growth inhibition at 20 mg/kg, po administered once daily and measured twice a week relative to control; assay type: functional; conditions: read-out: TGI
MDA-MB-231 = assay: cells; conditions: Homo sapiens, MDA-MB-231, 72 h
DU-145 [21] = assay: Induction of apoptosis in human DU-145 cells assessed as live cells at 0.3 uM incubated for 48 hrs by Annexin V-FITC/PI staining based flow cytometry analysis (reference value: 94.94%); assay type: functional
[22] = Toxicity in po dosed ICR mouse assessed as maximum tolerated dose measured on day 14; assay type: organism-based; conditions: in vivo, time 14 day
A549 [23] = assay: Antitumor activity against paclitaxel-resistant human A549 cells xenografted in BALB/c nude mouse assessed as tumor growth inhibition at 20 mg/kg, po administered once daily and measured twice a week relative to control; assay type: functional; conditions: read-out: TGI
[24] = Resistance index, ratio of IC50 for antiproliferative activity against paclitaxel-resistant human A549 cells to IC50 for antiproliferative activity against human A549 cells; assay type: functional
HUVEC = assay: Anti-angiogenesis activity against HUVEC cells assessed as inhibition of cell growth incubated for 72 hrs by MTT assay; assay type: functional, cell-based; conditions: Homo sapiens
[25] = Toxicity in specific pathogen-free Kunming mouse assessed as reduction in body weight at 10 mg/kg, po administered once daily and measured for 7 days; assay type: organism-based; conditions: in vivo, 168 h, time 7 day
[26] = Cytotoxicity against African green monkey Vero cells assessed as reduction in cell viability measured after 48 hrs; assay type: toxicity, cell-based, Chlorocebus sabaeus
DU-145 [27] = assay: Induction of apoptosis in human DU-145 cells assessed as live cells at 0.1 uM incubated for 48 hrs by Annexin V-FITC/PI staining based flow cytometry analysis (reference value: 94.94%); assay type: functional
DU-145 [28] = assay: Induction of apoptosis in human DU-145 cells assessed as increase in cleaved caspase 3 level at 0.003 to 0.3 uM incubated for 48 hrs by Western blot analysis; assay type: functional, cell-based; conditions: dose 0.003-0.3 µM
Tubulin (Homo sapiens) [29] = target: T1, Tubulin (Homo sapiens); assay: Inhibition of tubulin polymerization in human DU-145 cells assessed as inhibition of tubulin assembly at 0.1 uM incubated for 16 hrs by Hoechst staining based confocal microscopy analysis; assay type: cell-based
[30] = Mutagenicity in Salmonella typhimurium TA-102 at 0.5 to 500 ug per plate incubated for 72 hrs in presence or absence of S9 fraction by Ames test; assay type: toxicity, Salmonella enterica subsp. enterica serovar Typhimurium; conditions: in vivo, dose 0.5-500 µg

Voltage-gated inwardly rectifying potassium channel KCNH2, sequence (Q12809 whole entry): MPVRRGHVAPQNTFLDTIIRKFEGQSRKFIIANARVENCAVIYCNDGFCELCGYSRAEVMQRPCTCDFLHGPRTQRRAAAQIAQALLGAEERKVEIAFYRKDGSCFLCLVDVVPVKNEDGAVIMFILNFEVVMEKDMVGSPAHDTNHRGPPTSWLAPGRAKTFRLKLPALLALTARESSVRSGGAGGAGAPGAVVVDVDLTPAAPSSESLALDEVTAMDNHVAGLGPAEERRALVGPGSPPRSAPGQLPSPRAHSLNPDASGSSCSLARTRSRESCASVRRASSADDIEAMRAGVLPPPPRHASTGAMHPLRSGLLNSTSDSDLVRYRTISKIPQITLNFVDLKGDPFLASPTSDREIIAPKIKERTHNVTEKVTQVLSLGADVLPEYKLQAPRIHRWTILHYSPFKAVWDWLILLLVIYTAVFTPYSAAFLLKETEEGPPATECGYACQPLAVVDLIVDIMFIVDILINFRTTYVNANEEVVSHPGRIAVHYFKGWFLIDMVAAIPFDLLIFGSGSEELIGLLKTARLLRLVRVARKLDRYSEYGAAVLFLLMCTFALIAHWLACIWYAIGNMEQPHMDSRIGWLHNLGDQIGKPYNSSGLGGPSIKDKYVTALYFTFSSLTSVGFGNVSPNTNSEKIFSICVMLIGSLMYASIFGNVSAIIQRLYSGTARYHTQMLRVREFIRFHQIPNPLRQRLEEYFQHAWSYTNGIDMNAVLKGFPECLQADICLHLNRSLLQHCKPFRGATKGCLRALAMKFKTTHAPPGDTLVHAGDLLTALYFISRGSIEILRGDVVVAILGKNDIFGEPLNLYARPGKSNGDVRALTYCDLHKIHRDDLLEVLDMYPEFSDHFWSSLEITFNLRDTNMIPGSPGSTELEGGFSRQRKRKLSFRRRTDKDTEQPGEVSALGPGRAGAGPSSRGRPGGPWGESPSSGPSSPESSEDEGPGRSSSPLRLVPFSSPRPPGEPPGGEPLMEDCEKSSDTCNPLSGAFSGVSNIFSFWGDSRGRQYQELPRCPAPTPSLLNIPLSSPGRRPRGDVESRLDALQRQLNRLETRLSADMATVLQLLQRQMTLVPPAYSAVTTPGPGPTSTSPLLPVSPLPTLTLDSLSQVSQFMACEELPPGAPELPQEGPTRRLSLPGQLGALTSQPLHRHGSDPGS
L-type calcium channel alpha-1c/beta-2/alpha2delta-1, sequence (P54289 25-956 limits assumed): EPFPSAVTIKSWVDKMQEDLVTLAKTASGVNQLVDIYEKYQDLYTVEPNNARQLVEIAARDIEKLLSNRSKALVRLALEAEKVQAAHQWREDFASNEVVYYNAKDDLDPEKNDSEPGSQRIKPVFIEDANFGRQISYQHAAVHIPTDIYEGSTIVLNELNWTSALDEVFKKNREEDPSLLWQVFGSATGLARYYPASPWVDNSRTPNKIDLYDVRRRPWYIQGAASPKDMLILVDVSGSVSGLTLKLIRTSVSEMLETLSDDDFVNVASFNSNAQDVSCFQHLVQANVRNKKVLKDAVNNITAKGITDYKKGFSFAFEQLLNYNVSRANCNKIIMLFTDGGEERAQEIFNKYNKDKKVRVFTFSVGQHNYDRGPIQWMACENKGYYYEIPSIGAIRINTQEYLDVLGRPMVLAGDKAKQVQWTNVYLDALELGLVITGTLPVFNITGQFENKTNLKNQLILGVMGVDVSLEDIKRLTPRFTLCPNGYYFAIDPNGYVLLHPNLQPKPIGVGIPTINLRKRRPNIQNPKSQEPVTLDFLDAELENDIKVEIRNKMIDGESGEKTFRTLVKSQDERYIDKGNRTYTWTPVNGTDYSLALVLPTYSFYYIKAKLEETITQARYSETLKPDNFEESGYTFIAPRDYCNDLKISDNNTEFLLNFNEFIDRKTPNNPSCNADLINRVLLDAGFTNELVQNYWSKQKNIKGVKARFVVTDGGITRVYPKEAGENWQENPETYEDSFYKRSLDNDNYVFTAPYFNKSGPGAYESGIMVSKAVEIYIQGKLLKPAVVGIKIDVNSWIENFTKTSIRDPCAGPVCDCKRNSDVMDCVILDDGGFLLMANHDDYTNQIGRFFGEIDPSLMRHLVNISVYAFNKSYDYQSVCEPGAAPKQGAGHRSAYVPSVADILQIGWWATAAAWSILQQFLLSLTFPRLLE
L-type calcium channel alpha-1c/beta-2/alpha2delta-1, sequence (P54289 957-1103 limits assumed): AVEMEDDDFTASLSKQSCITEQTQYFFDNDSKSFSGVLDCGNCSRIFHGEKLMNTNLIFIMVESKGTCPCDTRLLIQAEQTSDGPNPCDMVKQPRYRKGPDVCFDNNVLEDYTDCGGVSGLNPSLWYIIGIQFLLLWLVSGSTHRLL
L-type calcium channel alpha-1c/beta-2/alpha2delta-1, sequence (Q08289 whole entry): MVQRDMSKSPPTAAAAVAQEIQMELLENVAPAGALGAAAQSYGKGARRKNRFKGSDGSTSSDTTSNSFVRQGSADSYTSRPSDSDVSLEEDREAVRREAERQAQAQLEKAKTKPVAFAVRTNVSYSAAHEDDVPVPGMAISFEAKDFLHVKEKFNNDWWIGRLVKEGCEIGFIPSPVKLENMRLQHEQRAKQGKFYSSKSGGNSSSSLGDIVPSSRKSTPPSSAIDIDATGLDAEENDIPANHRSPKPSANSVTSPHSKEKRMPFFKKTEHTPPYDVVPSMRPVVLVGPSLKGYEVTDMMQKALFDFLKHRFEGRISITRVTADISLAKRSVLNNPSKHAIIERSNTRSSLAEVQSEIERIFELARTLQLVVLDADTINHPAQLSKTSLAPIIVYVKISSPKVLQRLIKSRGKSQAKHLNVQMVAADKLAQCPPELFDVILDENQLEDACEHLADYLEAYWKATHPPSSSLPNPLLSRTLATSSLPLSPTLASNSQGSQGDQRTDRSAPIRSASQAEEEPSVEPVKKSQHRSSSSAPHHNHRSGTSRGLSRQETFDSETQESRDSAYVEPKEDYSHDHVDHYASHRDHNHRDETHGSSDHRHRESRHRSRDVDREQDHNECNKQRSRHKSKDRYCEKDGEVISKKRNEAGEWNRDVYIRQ
L-type calcium channel alpha-1c/beta-2/alpha2delta-1, sequence (Q13936 whole entry): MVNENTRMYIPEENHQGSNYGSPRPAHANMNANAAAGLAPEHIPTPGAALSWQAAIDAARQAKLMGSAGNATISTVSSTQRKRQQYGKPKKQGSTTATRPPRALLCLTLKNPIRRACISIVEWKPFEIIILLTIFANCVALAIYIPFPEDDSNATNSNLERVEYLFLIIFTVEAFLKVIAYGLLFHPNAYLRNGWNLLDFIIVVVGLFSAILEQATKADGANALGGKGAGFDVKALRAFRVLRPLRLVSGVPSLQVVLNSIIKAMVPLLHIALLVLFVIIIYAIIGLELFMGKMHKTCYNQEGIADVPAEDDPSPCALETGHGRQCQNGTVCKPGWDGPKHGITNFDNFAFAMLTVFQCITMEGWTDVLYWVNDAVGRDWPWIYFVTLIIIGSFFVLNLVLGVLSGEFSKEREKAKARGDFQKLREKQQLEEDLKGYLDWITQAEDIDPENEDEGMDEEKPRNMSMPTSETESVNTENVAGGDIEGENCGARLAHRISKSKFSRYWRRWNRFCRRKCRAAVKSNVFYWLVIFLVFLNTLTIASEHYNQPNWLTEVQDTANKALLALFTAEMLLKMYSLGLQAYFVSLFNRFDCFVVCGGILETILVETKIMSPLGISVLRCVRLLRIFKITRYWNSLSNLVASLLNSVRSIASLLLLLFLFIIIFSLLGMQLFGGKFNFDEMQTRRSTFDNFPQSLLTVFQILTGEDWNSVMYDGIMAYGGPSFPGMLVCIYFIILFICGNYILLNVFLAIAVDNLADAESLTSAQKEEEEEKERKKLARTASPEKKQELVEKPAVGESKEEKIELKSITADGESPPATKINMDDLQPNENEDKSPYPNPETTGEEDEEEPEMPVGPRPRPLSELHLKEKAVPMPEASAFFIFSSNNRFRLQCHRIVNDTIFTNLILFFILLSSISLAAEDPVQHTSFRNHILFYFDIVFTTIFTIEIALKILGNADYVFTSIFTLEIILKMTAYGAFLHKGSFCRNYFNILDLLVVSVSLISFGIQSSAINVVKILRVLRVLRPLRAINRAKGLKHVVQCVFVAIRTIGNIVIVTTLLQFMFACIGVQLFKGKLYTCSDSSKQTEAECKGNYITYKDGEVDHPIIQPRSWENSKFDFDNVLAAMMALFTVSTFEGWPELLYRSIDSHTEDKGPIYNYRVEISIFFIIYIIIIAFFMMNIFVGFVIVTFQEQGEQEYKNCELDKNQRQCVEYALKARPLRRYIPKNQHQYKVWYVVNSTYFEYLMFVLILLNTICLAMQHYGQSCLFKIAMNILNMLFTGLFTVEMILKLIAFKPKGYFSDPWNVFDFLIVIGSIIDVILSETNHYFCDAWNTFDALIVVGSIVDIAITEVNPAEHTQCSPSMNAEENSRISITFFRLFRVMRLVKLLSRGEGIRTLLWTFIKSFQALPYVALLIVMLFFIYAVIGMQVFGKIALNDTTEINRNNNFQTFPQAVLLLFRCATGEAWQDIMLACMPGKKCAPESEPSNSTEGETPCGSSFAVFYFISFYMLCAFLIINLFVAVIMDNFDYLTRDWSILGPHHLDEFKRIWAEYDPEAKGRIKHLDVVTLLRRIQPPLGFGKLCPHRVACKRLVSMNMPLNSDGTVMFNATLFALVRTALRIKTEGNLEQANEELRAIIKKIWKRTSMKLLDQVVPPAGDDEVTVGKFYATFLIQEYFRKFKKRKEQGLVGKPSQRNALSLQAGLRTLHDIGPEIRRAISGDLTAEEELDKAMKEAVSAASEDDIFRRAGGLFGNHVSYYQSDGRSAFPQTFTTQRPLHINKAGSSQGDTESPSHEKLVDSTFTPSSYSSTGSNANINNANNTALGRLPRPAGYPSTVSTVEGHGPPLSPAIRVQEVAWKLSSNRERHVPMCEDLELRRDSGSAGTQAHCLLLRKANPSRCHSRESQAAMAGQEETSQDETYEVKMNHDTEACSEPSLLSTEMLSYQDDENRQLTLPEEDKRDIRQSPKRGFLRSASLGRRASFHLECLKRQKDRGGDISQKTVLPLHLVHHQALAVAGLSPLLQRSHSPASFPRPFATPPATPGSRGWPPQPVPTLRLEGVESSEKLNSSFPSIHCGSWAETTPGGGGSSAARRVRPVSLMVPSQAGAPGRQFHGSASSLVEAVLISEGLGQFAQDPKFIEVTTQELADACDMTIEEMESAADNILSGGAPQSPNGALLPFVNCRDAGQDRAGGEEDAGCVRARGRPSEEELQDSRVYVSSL

## Cc1ccc(S(=O)(=O)Nc2cc(C(=O)NCc3ccc(C)nc3)ccc2C)cc1
DU-145 [1]
  Activity: 5.08%
[2]
  IC50: > 10 µM
Tubulin (Homo sapiens) [3]
  inhibition: 75%
[4]
  Activity: Non-Toxic
MCF7
  IC50: 0.006 µM
DU-145 [5]
  Activity: 2.95%
DU-145 [6]
  Activity: 73.88%
DU-145 [7]
  Activity: 13.66%
[8]
  half-life: 26 min
[9]
  Cmax: 2740 ng/mL
BGC-823
  IC50: 0.021 µM
[10]
  IC50: > 30 µM
NCI-H1299
  Activity: 48.8%
[11]
  Activity: Non-Toxic
DU-145 [12]
  IC50: 0.004 µM
[13]
  AUC(0-t): 2580 ng·h/mL
A549 [14]
  IC50: 0.025 µM
DU-145 [15]
  Activity: 30.32%
NCI-H460
  IC50: 0.077 µM
[16]
  Activity: Non-Toxic
Tubulin (Homo sapiens) [17]
  Activity: Active
[18]
  Activity: Non-Toxic
A549 [19]
  IC50: 0.03 µM
[20]
  bioavailability: 48.2%
B16-F10
  inhibition in vivo at 20 mg/kg: 70.6%
MDA-MB-231
  IC50: 0.009 µM
DU-145 [21]
  Activity: 37.88%
[22]
  MTD at 336 h: > 60 mg/kg
A549 [23]
  inhibition in vivo at 20 mg/kg: 74.8%
[24]
  Ratio IC50: 1.2
HUVEC
  IC50: 0.032 µM
[25]
  Activity: Non-Toxic
[26]
  IC50 at 48 h: 0.04 µM
DU-145 [27]
  Activity: 43.52%
DU-145 [28]
  Activity: Active
Tubulin (Homo sapiens) [29]
  inhibition: Active
[30]
  Activity: Non-Toxic
